One data set has as its system PC-3 tumor xenografts. The data set is described as follows: In vivo therapy study, PC-3 tumor model. The note with it: mouse. How it is done: Animal studied were performed according to a protocol approved by the Institutional Animal Care and Use Committee (IACUC) of the University of Georgia. The animals were maintained under pathogen-free conditions. PC-3 tumor model was generated by subcutaneously injecting 2×10^6 cells in 50 μL PBS into the right flank of 5-6 week old male athymic nude mice (Charles River). U-87 MG tumor model was generated in female athymic nude mice (Charles River) following the same method as PC-3 model. B16F10 tumor model was generated by subcutaneously injecting 2×10^5 cells in 50 μL PBS into the right flank of 5-6 week old female C57BU6 mice (Charles River). SCC VII tumor model was generated by subcutaneously injecting […] in 50 μL PBS into the right flank of 5-6 week old female C3H/HeN mice (Charles River). UPPL-1541 tumor model was generated by subcutaneously injecting 1×10^6 cells in 50 μL PBS into the right flank of 5-6 week old female C57BL6 mice (Charles River).
For therapy studies, PC-3 tumor bearing mice were randomly divided into 2 groups (n=5 for each group). When the average tumor volume was about 100 mm^3, PSCNPs (9 mg/mL, 50 μL) were intratumorally injected on day 0, 2 and 4. For control, saline at the same volume was injected. […] The tumor was measured in two dimensions with a caliper, and the tumor volume was estimated as (length)×(width) 2/2. […]

Data set [1] is classed as physicochemical. The settings on record: pH 5.5. How it is done:
were dispersed in 100 μl ammonium acetate buffers (pH=5.5 or pH=7) and added into a Slide-A-LyzerTM MINI Dialysis Device (MWCO=2K, Cat #69550, Thermofisher, US). Place the unite into a 5 mL Eppendorf tube containing 4.5 mL ammonium acetate buffer. Keep the tube on the shaker (20 rpm) at room temperature. […] All measurements were performed following the manufacture's protocol and repeated in sextuplicate.

The subject of data set [2] is PC-3 cells. The data set is described as follows: Necrosis inhibition study (LDH release). In kind it is cell-based, human. The note with it: PC-3 cells pre-incubated with inhibitor 1 h, then PSCNPs. How it is done:
PC-3 cells were plated overnight at a density of 1×10^4 cells per well in a 96-well plate. These cells were pre-treated with necrosis inhibitor glycine (5 mM) or capsase-1 inhibitor Ac-YVAD-cmk (30 μg/mL) for 1 h, and then incubated with […] (160 or 320 μg/mL) for 6 h. Cell without glycine or Ac-YVAD-cmk treatment were studied as controls. Supernatants were collected and the LDH contents were analyzed by LDH Assay Kit-WST (CT01-05, Dojindo, Japan). The results were normalized to PBS treated control cells.

Data set [3] relates to PC-3 cells. The class given is cell-based, human. The note with it: MTT 24 h; NaCl salt at 160 μg/mL; free phospholipid. The protocol: Cells were seeded into 96-well plates at the density of 1×10^4 cells per well and incubated overnight. […] MTT assays (3-(4,5-dimethylthiazol-2-yl)-2,5-diphenyl tetrazolium bromide, Sigma) were performed following the manufacture's protocol. The absorbance at 570 nm was measured by a microplate reader (Synergy Mx, BioTeK). All measurements were performed in sextuplicate.

In a further data set the test system is B16F10 cells. Description: CRT presentation, ATP and HMGB-1 release. In kind it is cell-based, murine. The settings on record: control. How it is done: (§1) CRT expression on cell surface in flow cytometry assessment. T24, UMUC2, UPPL-1541, BBN963, B16F10, and SCC VII cells are seeded into the 6 wells plate at 1×10^6 per well. After overnight incubation, the cells were treated with NaCl particles ([…]) (160 μg/mL) for 2 h. PBS treated cells were used as a control. All the cells were collected by cell […], and incubated with an Alexa Fluor® 647-conjugated anti-CRT antibody (ab196159, 1/500. Abcam) for 30 min at 4° C. The cells were incubated in 500 μL PBS containing 50 μg/mL propidium iodide before washing and assessment on a flow cytometer. The data were expressed in histogram compared to the PBS treated control cells. Cells were seeded into 96-well plates at the density of 1×10^4 cells per well and incubated overnight. Then the cells were treated with […] dispersed in PBS at a dose range of 13.2-320 μg/mL for 1, 2, 4 h and 24 h. Cell supernatant was collected after 1-4 h incubation and tested in ATP 1step Luminescence Assay System, 100 mL ATP Assay Kit (PerkinElmer, US) following the manufacture's protocol. […] The luminescence was measured by a microplate reader (Synergy Mx, BioTeK). All measurements were performed in sextuplicate. Cell supernatant was collected after 24 h incubation and tested in an ELISA kit (IBL International GmbH), according to the manufacturer's instructions.

The test system of the next data set is SCC VII cells. Description: CRT presentation, ATP and HMGB-1 release. In kind it is cell-based, murine. The note with it: control. How it is done: as §1

Data on five compounds can be found in patent US20220096539A1, “SALT NANOPARTICLES AND COMPOSITIONS AND METHODS OF USE THEREOF” (priority 2019, published 2022).

As for “Phospholipid-coated Sodium Chloride Nanoparticles [PSCNPs]”, the “toxicity in major organs” value with PC-3 tumor xenografts is “no sign of toxicity”. Further, in data set [1], the “effect of lowering pH to 5.5 on nanoparticle degradation” value is on record as “did not accelerate nanoparticle degradation”.

Ac-YVAD-cmk: in the data set on PC-3 cells [2], the “reduction of PSCNP-induced LDH release” value was 60.9%.

As to `[Cl-].[Na+]` [NaCl salt, NaCl], the “toxicity to PC-3 cells” value with PC-3 cells [3] is “no toxicity”. Moreover, the “release of ICD biomarkers (ATP and HMGB-1)” value in the data set on B16F10 cells and in the data set on SCC VII cells was “negligible impact” each time.

For the compound `NCC(=O)O` [glycine], in the data set with PC-3 cells [2], the “reduction of PSCNP-induced LDH release” value was found to be 72.9%.

As for “1,2-distearoyl-sn-glycero-3-phosphoethanolamine-N-[amino(polyethylene glycol)-2000] (ammonium salt) [free phospholipid]”, the “toxicity to PC-3 cells” value in the data set on PC-3 cells [3] was “no toxicity”.
